Literature values, collected in PMC10994420, “Development of peptides for targeting cell ablation agents concurrently to the Sertoli and Leydig cell populations of the testes: An approach to non-surgical sterilization” (PLOS ONE, 2024).
Numbered stars: 1 amine (or outer) side, 2 acyl side, 3 side chain; on linkers, the order of the positions; unused ones are H or OH. Square brackets hold non-standard residues; d marks the D form. Peptide text beside a SMILES is read from it. * marks the point of attachment. Dolaproine = CO[C@@H]([C@@H]1CCCN1)[C@@H](C)C(=O)O; Hexanoyl(6-maleimido) = O=C1C=CC(=O)N1CCCCCC(=O)*; Dil = CC[C@H](C)[C@H](NC)[C@@H](CC(=O)O)OC; PABC = O=C(OCc1ccc(N[*:1])cc1)[*:2]; X1 = C[C@@H](N*)[C@@H](O)c1ccccc1; Cit = NC(=O)NCCC[C@H](N)C(=O)O; NMeV = CN[C@H](C(=O)O)C(C)C

How the values were obtained:
[1] = no reference given
Method: Four treatment groups of ten 55-day-old male Swiss male CD1 mice were injected intraperitoneally. Treatments included: (1) […] vehicle control (30% Solutol (Kolliphor)/PBS), (2) 300 μL/30 g 14.5 mM FSH2Menadione, (3) 100 μL/30g 425 μM LH2Aur, or (4) 300 μL/30 g 14.5 mM FSH2Menadione plus 100 μL/30g 425 μM LH2Aur (consecutive injections, 16 h apart). The dose of 1 mg/kg of conjugated Auristatin was determined with reference to the work by Doronina et al., who determined the maximum tolerated dose (MTD) of conjugated Auristatin for mice is 1.1 mg/kg. Solubility of the FSH2Menadione was ...

[2] = maleimide form with valine-citrulline linker; ref https://www.chemsrc.com/en/cas/646502-53-6_1197872.html
Source text: Among these criteria, aqueous solubility was considered an important factor, both in the context of reaction with Auristatin and for use of biocompatible solvents for in vivo delivery.

SMILES	MTD [1] [mg/kg]	aqueous solubility [2]	logP value [2]
CC1=CC(=O)c2ccccc2C1=O [menadione, 2-methyl-1,4-naphthoquinone]	830	–	–
CC[C@H](C)[C@@H]([C@@H](CC(=O)N1CCC[C@H]1[C@H](OC)[C@@H](C)C(=O)N[C@H](C)[C@@H](O)c1ccccc1)OC)N(C)C(=O)[C@@H](NC(=O)[C@H](C(C)C)N(C)C(=O)OCc1ccc(NC(=O)[C@H](CCCNC(N)=O)NC(=O)[C@@H](NC(=O)CCCCCN2C(=O)C=CC2=O)C(C)C)cc1)C(C)C [Auristatin, maleimide-valine-citrulline- para-aminobenzyloxycarbonyl -monomethyl-Auristatin E] ({Hexanoyl(6-maleimido)}-V[Cit][PABC][NMeV]V[Dil][Dolaproine]-X1)	–	very poor	6.04
